{
  "source": "patent US6291676A",
  "about": "“Water-soluble derivatives of camptothecin/homocamptothecin” (priority 2000, dated 2001)",
  "key": {"[1]": {"experiment": "Fluorescence anisotropy titration: association with negatively-charged DMPG vesicles", "format": "physicochemical", "experimental": "Vesicle Preparation. Small unilamellar vesicle (SUV) suspensions were prepared the day of an experiment by the method of Burke et al. (T. G. Burke, A. K. Mishra, M. C. Wani, and M. E. Wall, Lipid Bilayer Partitioning and Stability of Camptothecin Drugs, Biochem., 32(20), 5352 (1993)). Briefly, stock lipid suspensions containing 200 mg/mL lipid in phosphate buffered saline (PBS, pH 7.4) were prepared by Vortex mixing for 5-10 min above the TM of the lipid. The lipid dispersions were then sonicated using a bath-type sonicator (Laboratory Supplies Co., Hicksville, N.Y.) for 3-4 h until they became optically clear. […] Each type of vesicle suspension was annealed for 30 min at 37° C. and then used in an experiment.\nFluorescence Instrumentation. Steady-state fluorescence measurements were obtained on a SLM Model 9850 spectrofluorometer with a thermostated cuvette compartment. This instrument was interfaced with an IBM PS/2 model 55 SX computer. Excitation and emission spectra were recorded with an excitation resolution of 8 nm and an emission resolution of 4 nm. In all cases spectra were corrected for background fluorescence and scatter from unlabeled lipids or from solvents by subtraction of the spectrum of a blank. Steady-state fluorescence intensity measurements were made in the absence of polarizers. Steady-state anisotropy (a) measurements were determined with the instrument in the \"T-format\" for simultaneous measurement of two polarized intensities. […] The anisotropy was calculated from a =(IVV -GIVH)/(IVV +2GIVH), where G=IHV /IHH and the subscripts refer to vertical and horizontal orientations of the excitation and emission polarizers, respectively.\nAnisotropy measurements for camptothecins were conducted using exciting light in the range of 370 nm to 400 nm and long pass filters on each emission channel in order to isolate the drug's fluorescence signal from background scatter and/or residual fluorescence. […] The combination of exciting light and emission filters allowed us to adequately separate fluorescence from background signal. […]"}, "[2]": {"experiment": "HPLC lactone stability in presence of DMPG SUV", "format": "physicochemical", "details": "for less lactone compared to the prior art monoamine (7AEC): DMPG", "experimental": "To further study the differential interactions of CT-17 versus 7AEC with liposomal particles, high performance liquid chromatographic (HPLC) methods were employed to study drug stabilities in the absence and presence of membranes. In these experiments, small unilamellar vesicles (SUV) composed of dimyristoyl phosphatidylcholine (DMPC) were prepared by weighing out dry lipid powder (Avanti Polar Lipids) in a glass tube with screw cap top. The lipid was suspended in phosphate buffered saline, pH 7.4, at the concentration of 20 mg/ml and vortexed vigorously for 1 minute. The suspension was sonicated in a bath-type sonicator (Laboratory Supplies Co., Hicksville, N.Y.) for 2-4 hours until optically clear solution is obtained. […] A decrease in pH from 7.4 to 7.2 was observed. The pH of the SUV preparation was adjusted to 7.4 by the addition of 0.1 M potassium hydroxide. The sample was resonicated after pH adjustment until optically clear. Small unilamellar vesicles composed of dimyristoyl phosphatidylglycerol (DMPG) were also prepared by weighing out dry powder of the lipid (Avanti Polar Lipids) in a glass tube with screw-cap top and prepared as in the case of DMPC. The pH of the preparation decreased from 7.4 to 6.9 and was adjusted to 7.4 by the addition of 0.1 M KOH. The preparation was resonicated for 30 minutes until optically clear.\nStock solutions of 7-(1-Aminoethyl)camptothecin, a monoamine compound known in the prior art, and CT-17 as prepared in Example 18 were prepared by weighing out dry powder and dissolving in dimethylsulfoxide (DMSO) at a concentration of 2 mM. The SUV preparations from above were incubated at 37° C. in a water bath for 30 minutes. The two camptothecin drugs were added to the SUV preparations such that the final drug concentrations were 1 μM. The samples were incubated at 37° C. and aliquots were withdrawn at 1 hour and 3 hours and added to cold methanol (-20° C.) and immediately analyzed by reversed-phase HPLC using the conditions as follows. Analysis was performed using either Waters Alliance 2690 LC system equipped with temperature controlled autosampler or Waters LC system equipped with temperature controlled 717 plus Autosampler and 501 pumps. The detection was using either Waters 470 or 474 fluorescence detectors. Solvent A was 2% triethylammonium acetate, pH 5.5 and Solvent B was acetonitrile. The column used was Waters Symmetry C18, 5 μm (3.9×150 mm). The autosampler temperature was maintained at 4-5° C. The conditions used for analysis of 7-(1-Aminoethyl)camptothecin: Isocratic elution using 15% of solvent A and 85% of solvent B; detection using λcx =370 and λcm =440. […] The HPLC data was collected and analyzed using Waters Millenium chromatography manager."}},
  "data": [
    {"smiles": "CC[C@@]1(O)C(=O)OCc2c1cc1n(c2=O)Cc2c-1nc1ccccc1c2CNN1CCN(C)CC1", "note": "[CT-17, 7-[N-(4-methyl-1-piperazino)aminomethyl]-(20S)-camptothecin]", "values": [
      {"measurement": "Overall association constant KDMPG", "setting": "[1]; PBS buffer, pH 7.4, physiological temperature, DMPG", "result": 800, "unit": "M⁻¹"},
      {"measurement": "reduction in membrane binding relative to 7AEC (negatively-charged membranes)", "setting": "[1]; negatively-charged DMPG membranes", "result": "three-fold"},
      {"measurement": "remaining at 1 h, 1 µM", "setting": "[2]; DMPG SUV, PBS pH 7.4, 37° C, 1 hr, 1 μM drug, read-out: Percentage of Lactone, DMPG, 1 Hr", "result": "87 ± 2", "unit": "%"},
      {"measurement": "remaining at 3 h, 1 µM", "setting": "[2]; DMPG SUV, PBS pH 7.4, 37° C, 3 hr, 1 μM drug, read-out: Percentage of Lactone, DMPG, 3 Hr", "result": "78 ± 3", "unit": "%"},
      {"measurement": "less lactone compared to the prior art monoamine (7AEC)", "setting": "[2]; 1 hr", "result": 6, "unit": "%"},
      {"measurement": "less lactone compared to the prior art monoamine (7AEC)", "setting": "[2]; 3 hr", "result": 8, "unit": "%"}
    ]}
  ]
}
